Reference: ChEMBL document CHEMBL1201862, “PubChem BioAssay data set” (2004)
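Briefly, cells in 96-well plates were exposed to five compound concentrations for 48 h, and endpoints were estimated by linear interpolation. GI50 marks 50% less growth.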 Activity calls are given as the source filed them. Rule as the data show it: active = GI50 up to about 1.1 µM and inactive = higher.

Experiments:
Experiment in all cases: DTP human tumour cell line panel, 48 h
786-0 = test system: 786-0
A498 = test system: A498
A549 = test system: A549
ACHN = test system: ACHN
CAKI-1 = test system: CAKI-1
CCRF-CEM = test system: CCRF-CEM
DLD-1 = test system: DLD-1
EKVX = test system: EKVX
HCC 2998 = test system: HCC 2998
HCT-116 = test system: HCT-116
HCT-15 = test system: HCT-15
HL-60 = test system: HL-60
HOP-18 = test system: HOP-18
HOP-62 = test system: HOP-62
HOP-92 = test system: HOP-92
HT-29 = test system: HT-29
K562 = test system: K562
KM-20L2 = test system: KM-20L2
KM12 = test system: KM12
LOX IMVI = test system: LOX IMVI
LXFL 529 = test system: LXFL 529
M14 = test system: M14
M19-MEL = test system: M19-MEL
MOLT-4 = test system: MOLT-4
Malme-3M = test system: Malme-3M
NCI-H226 = test system: NCI-H226
NCI-H23 = test system: NCI-H23
NCI-H460 = test system: NCI-H460
NCI-H522 = test system: NCI-H522
OVCAR-4 = test system: OVCAR-4
OVCAR-8 = test system: OVCAR-8
SF-268 = test system: SF-268
SF-295 = test system: SF-295
SF-539 = test system: SF-539
SK-MEL-28 = test system: SK-MEL-28
SK-MEL-2 = test system: SK-MEL-2
SK-OV-3 = test system: SK-OV-3
SN12C = test system: SN12C
SNB-19 = test system: SNB-19
SNB-75 = test system: SNB-75
SNB-78 = test system: SNB-78
SR = test system: SR
SW-620 = test system: SW-620
TK-10 = test system: TK-10
U-251 = test system: U-251
UACC-257 = test system: UACC-257
UACC-62 = test system: UACC-62
UO-31 = test system: UO-31
BT-549 = test system: BT-549
COLO 205 = test system: COLO 205
DU-145 = test system: DU-145
Hs-578T = test system: Hs-578T
IGROV-1 = test system: IGROV-1
MCF7 = test system: MCF7
MDA-MB-231 = test system: MDA-MB-231
MDA-MB-435 = test system: MDA-MB-435
MDA-N = test system: MDA-N
NCI/ADR-RES = test system: NCI/ADR-RES
OVCAR-3 = test system: OVCAR-3
OVCAR-5 = test system: OVCAR-5
PC-3 = test system: PC-3
RPMI-8226 = test system: RPMI-8226
RXF 393 = test system: RXF 393
SK-MEL-5 = test system: SK-MEL-5
T47D = test system: T47D

For `C/C(=N\Nc1nnc(S)n1N)c1c(O)cc(C)oc1=O`, the GI50 (786-0) was > 100 µM (inactive), the GI50 (A498) was > 100 µM (inactive) and the GI50 (A549) was > 100 µM (inactive). The GI50 (ACHN) was > 100 µM (inactive), the GI50 (CAKI-1) was > 100 µM (inactive) and the GI50 (CCRF-CEM) was > 100 µM (inactive). For the same compound, the GI50 (DLD-1) was > 100 µM (inactive), the GI50 (EKVX) was > 100 µM (inactive) and the GI50 (HCC 2998) was > 100 µM (inactive). For the same compound, the GI50 (HCT-116) was > 100 µM (inactive), the GI50 (HCT-15) was > 100 µM and the GI50 (HL-60) was > 100 µM (inactive). For the same compound, the GI50 (HOP-18) was > 100 µM (inactive), the GI50 (HOP-62) was > 100 µM (inactive) and the GI50 (HOP-92) was > 100 µM (inactive). For the same compound, the GI50 (HT-29) was > 100 µM (inactive), the GI50 (K562) was > 100 µM (inactive) and the GI50 (KM-20L2) was > 100 µM (inactive). For the same compound, the GI50 (KM12) was > 100 µM (inactive), the GI50 (LOX IMVI) was > 100 µM (inactive) and the GI50 (LXFL 529) was > 100 µM (inactive). For the same compound, the GI50 (M14) was > 100 µM (inactive), the GI50 (M19-MEL) was > 100 µM (inactive) and the GI50 (MOLT-4) was > 100 µM (inactive). For the same compound, the GI50 (Malme-3M) was > 100 µM (inactive), the GI50 (NCI-H226) was > 100 µM (inactive) and the GI50 (NCI-H23) was > 100 µM (inactive). For the same compound, the GI50 (NCI-H460) was > 100 µM (inactive), the GI50 (NCI-H522) was > 100 µM (inactive) and the GI50 (OVCAR-4) was 99.3 µM (inactive). For the same compound, the GI50 (OVCAR-8) was > 100 µM (inactive), the GI50 (SF-268) was > 100 µM (inactive) and the GI50 (SF-295) was > 100 µM (inactive). The GI50 (SF-539) was > 100 µM (inactive), the GI50 (SK-MEL-28) was > 100 µM (inactive) and the GI50 (SK-MEL-2) was > 100 µM (inactive). The GI50 (SK-OV-3) was > 100 µM (inactive), the GI50 (SN12C) was > 100 µM (inactive) and the GI50 (SNB-19) was > 100 µM (inactive). The GI50 (SNB-75) was > 100 µM (inactive), the GI50 (SNB-78) was > 100 µM (inactive) and the GI50 (SR) was > 100 µM (inactive). For the same compound, the GI50 (SW-620) was > 100 µM (inactive), the GI50 (TK-10) was > 100 µM (inactive) and the GI50 (U-251) was > 100 µM (inactive). For the same compound, the GI50 (UACC-257) was > 100 µM (inactive), the GI50 (UACC-62) was > 100 µM (inactive) and the GI50 (UO-31) was > 100 µM (inactive).

`C=C(C)C(=O)OC1CC2(C)OC2CC(OC(C)=O)/C(C)=C/C2OC(=O)C(=C)C21` (configuration not stated) was tested, and the GI50 (786-0) was 2.22 µM (inactive), the GI50 (A498) was 12.9 µM (inactive) and the GI50 (A549) was 19 µM (inactive). The GI50 (ACHN) was 1.49 µM (inactive), the GI50 (BT-549) was 1.09 µM (active) and the GI50 (CAKI-1) was 2.53 µM (inactive). For the same compound, the GI50 (CCRF-CEM) was 0.0895 µM (active), the GI50 (COLO 205) was 1.52 µM (inactive) and the GI50 (DU-145) was 2.13 µM (inactive). For the same compound, the GI50 (EKVX) was 3.1 µM (inactive), the GI50 (HCC 2998) was 6.34 µM (inactive) and the GI50 (HCT-116) was 1.7 µM (inactive). For the same compound, the GI50 (HCT-15) was 0.566 µM, the GI50 (HL-60) was 0.207 µM (active) and the GI50 (HOP-62) was 13.1 µM (inactive). For the same compound, the GI50 (HOP-92) was 3.64 µM (inactive), the GI50 (HT-29) was 1.31 µM (inactive) and the GI50 (Hs-578T) was 2.3 µM (inactive). For the same compound, the GI50 (IGROV-1) was 4.17 µM (inactive), the GI50 (K562) was 0.56 µM (active) and the GI50 (KM12) was 11.2 µM (inactive). For the same compound, the GI50 (LOX IMVI) was 2.73 µM (inactive), the GI50 (M14) was 3.01 µM (inactive) and the GI50 (MCF7) was 2.33 µM (inactive). The GI50 (MDA-MB-231) was 6.49 µM (inactive), the GI50 (MDA-MB-435) was 1.18 µM (inactive) and the GI50 (MDA-N) was 2.73 µM (inactive). The GI50 (MOLT-4) was 0.441 µM (active), the GI50 (Malme-3M) was 0.573 µM (active) and the GI50 (NCI-H226) was 17.6 µM (inactive). The GI50 (NCI-H23) was 2.76 µM (inactive), the GI50 (NCI-H460) was 1.73 µM (inactive) and the GI50 (NCI-H522) was 0.124 µM (active). The GI50 (NCI/ADR-RES) was 2.68 µM (inactive), the GI50 (OVCAR-3) was 2.26 µM (inactive) and the GI50 (OVCAR-4) was 9.48 µM (inactive). The GI50 (OVCAR-5) was 5.83 µM (inactive), the GI50 (OVCAR-8) was 2.03 µM (inactive) and the GI50 (PC-3) was 9.08 µM (inactive). For the same compound, the GI50 (RPMI-8226) was 0.349 µM (active), the GI50 (RXF 393) was 2.04 µM (inactive) and the GI50 (SF-268) was 2.12 µM (inactive). The GI50 (SF-295) was 16.2 µM (inactive), the GI50 (SF-539) was 2.82 µM (inactive) and the GI50 (SK-MEL-28) was 0.724 µM (active). For the same compound, the GI50 (SK-MEL-2) was 5.37 µM (inactive), the GI50 (SK-MEL-5) was 8.2 µM (inactive) and the GI50 (SK-OV-3) was 29 µM (inactive). For the same compound, the GI50 (SN12C) was 2.52 µM (inactive), the GI50 (SNB-19) was 15.2 µM (inactive) and the GI50 (SNB-75) was 15.5 µM (inactive). The GI50 (SR) was 1.08 µM (active), the GI50 (SW-620) was 0.426 µM (active) and the GI50 (T47D) was 3.48 µM (inactive). The GI50 (TK-10) was 3.45 µM (inactive), the GI50 (U-251) was 12.5 µM (inactive) and the GI50 (UACC-257) was 6.5 µM (inactive). For the same compound, the GI50 (UACC-62) was 4.57 µM (inactive) and the GI50 (UO-31) was 2.68 µM (inactive).
